Measured values as given in patent US8617583B2, “Alpha adrenergic receptor agonists for prevention or treatment of a hematoma, edema, and/or deep vein thrombosis” (Warsaw Orthopedic, Inc., priority 2009, dated 2013).

Tested on: Rat Chronic Constriction Injury Model
Conditions: 0.02 mg/kg/day subcutaneously
Experimental: A 2-month chronic constriction injury (CCI) model of neuropathic pain was used to evaluate different formulations of a clonidine, encapsulated in bioerodable polymers compared to fluocinolone given subcutaneously (SC). Different formulations as provided in Table 5 below were evaluated for reducing pain-associated behaviors: Thermal paw withdrawal latency was evaluated at baseline 7, 14, 21, 28, 35, 42, 49, 56 and […] mechanical threshold was evaluated at 8, 15, 22, 29, 36, 43, 50, 57 and 64 days post-operatively.
The inventor evaluated the efficacy of a five Month Clonidine/Polyrner Drug Depot in the Rat Chronic Constriction Injury Model. The animal model was the Bennett Model (Wistar rat). The purpose: To determine whether a five month polymer clonidine-eluting depot can improve pain associated behavioral responses in a rat model of neuropathic pain.
Experimental Design: Four loose chromic gut ligatures, 1 mm apart, were tied around the common sciatic nerve at mid-thigh. Each animal received treatment of test or control article-according to the dosing described in Table 5.
The inventor has conducted the present study for a period of 64 days and have employed the following two tests: (1) the Hargreaves test; and (2) the von Frey test. The Hargreaves Tests of Thermal Hyperalgesia were conducted on days 7, 14, 21, 28, 35, 42, 49, 56 and 63. […]

Clc1cccc(Cl)c1N=C1NCCN1 [clonidine, 2,6-dichloro-N-2-imidazolidinyldenebenzenamine]
pain behavioral response (measured as a percentage of baseline) for thermal hyperalgesia (FIG. 3, vs unloaded polymer depots 45%): 58% | pain behavioral response (percentage of baseline) for mechanical allodynia, in words (FIG. 4, compared to unloaded polymer depots): reduced the behavioral response
